# Laboratory results: article PMC12332667, “Role of Structural Modifications in Peptidomimetic Compounds as Potential Antimicrobial Agents against Staphylococcus aureus and Streptococcus pyogenes: Balancing Bioavailability, Safety, and Antimicrobial Activity” (ACS Omega, 2025)
# Like-named read-outs stand apart in the source and are kept apart here. Residues, ends and D or L forms follow the SMILES beside them.
# Columns and labels:
# S. pyogenes ATCC 19615 = assay: MIC/MBC broth microdilution, S. pyogenes; format: cell-based, Streptococcus pyogenes
# Method in brief: (§1)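 Broth microdilution per NCCLS in BHI, ~10^5 CFU/mL inoculum, serially diluted peptidomimetics (stock 1024 μg/mL in water with 5–10% ethanol or DMSO), 18 h at 37 °C. MIC: lowest concentration with no obvious growth (≥90% of untreated); MBC: ≤3 colonies, ≥99.9% kill.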
# S. agalactiae ATCC 27956 = assay: MIC/MBC broth microdilution, S. agalactiae; format: cell-based, Streptococcus agalactiae; conditions: Streptococcus agalactiae, ATCC27956, S. agalactiae; for MBC: read-out: MBC; for MIC: read-out: MIC
# Method in brief: as §1
# E. faecalis c.i. = assay: MIC/MBC broth microdilution, E. faecalis; format: cell-based, Enterococcus faecalis
# Method in brief: as §1
# S. cohnii c.i. = assay: MIC/MBC broth microdilution, S. cohnii; format: cell-based, Staphylococcus cohnii; conditions: for MIC: read-out: MIC
# Method in brief: as §1
# E. coli ATCC 25922 = assay: MIC/MBC broth microdilution, E. coli; format: cell-based, Escherichia coli
# Method in brief: as §1
# S. mutans c.i. = assay: MIC/MBC broth microdilution, S. mutans; format: cell-based, Streptococcus mutans
# Method in brief: as §1
# P. aeruginosa ATCC 10145 = assay: MIC/MBC broth microdilution, P. aeruginosa; format: cell-based
# Method in brief: as §1
# [1] = tested on: K. pneumoniae ATCC 700603; assay: MIC/MBC broth microdilution, K. pneumoniae; format: cell-based
# Method in brief: as §1
# P. vulgaris ATCC 6896 = assay: MIC/MBC broth microdilution, P. vulgaris; format: cell-based, Proteus vulgaris
# Method in brief: as §1
# S. schleiferi c.i. = assay: MIC/MBC broth microdilution, S. schleiferi; format: cell-based, Staphylococcus schleiferi
# Method in brief: as §1
# S. aureus ATCC 43300 = assay: MIC/MBC broth microdilution, S. aureus; format: cell-based, Staphylococcus aureus; conditions: S. aureus
# S. intemrdius c.i. = assay: MIC/MBC broth microdilution, S. intermedius; format: cell-based, Staphylococcus intermedius
# Method in brief: as §1
# [2] = tested on: primary human keratinocytes; design: method as in PMID 28110818; conditions: concentrations up to 50 μg/mL; reference number not given, probably ref 22; cited from earlier work
# [3] = Stability / presence in human plasma; format: in vitro ADME; conditions: 24 h incubation at 37 °C
# Description: Blood was drawn from healthy volunteers, and lithium/heparin holding tubes were used to remove the clot by centrifugation. The plasma was aliquoted in sterile conditions and incubated with the desired compounds for 24 h at 37 °C. The samples were prepared under sterile conditions following the previously described protocol. The samples were collected at six time points (0, 1, 2, 3, 6, and 24 h) for determining stability in water solutions, and time points of 0, 10, 20, 30, 40, 50, and 60 min, as well as of 2, 3, 6, and 24 h, for determining stability in human plasma. The analysis was performed by HPLC using a Kromasil C8 column (5 μm, 90 Å, 1.0 mm × 250 mm) monitored by a PDA or ELDS-LT II detector. For quantification, peak areas were compared to a calibration curve calculated by Shimadzu LCsolution Software (Kyoto, Japan). Graphs were prepared in GraphPad Prism (Boston, USA).
# [4] = tested on: human dermal fibroblast cell line (46BR.1N); assay: XTT cell proliferation assay, fibroblasts; format: cell-based
# Method in brief: (§2)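 Cells at 37 °C, 5% CO2 received peptidomimetics in serum-free HG-DMEM for 48 or 72 h; for 72 h, half the medium was renewed and peptide re-added at 48 h. XTT reagent was then incubated 4 h and absorbance read at 490 nm; Mann–Whitney U test, p ≤ 0.05.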
# [5] = tested on: immortalized human keratinocytes (HaCaT); assay: LDH cytotoxicity test, keratinocytes; format: cell-based; conditions: LDH, 48 h
# Method in brief: (§3)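 HaCaT keratinocytes and 46BR.1N fibroblasts, 5000 cells per well, grown 24 h, then exposed to peptidomimetics at 50, 100 and 150 μg/mL in serum-free medium for 48 h. LDH release in supernatant read at 450 nm, normalized to untreated (0%) and 1% Triton X-100 (maximal) controls.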
# [6] = tested on: immortalized human HaCaT keratinocytes; assay: XTT cell proliferation assay, keratinocytes; format: cell-based
# Method in brief: as §2
# fibroblasts (46BR.1N) = assay: LDH cytotoxicity test, fibroblasts; format: cell-based; conditions: LDH, 48 h
# Method in brief: as §3
# [7] = cited from earlier work
# [8] = S. pyogenes, water additive EtOH
# [9] = Staphylococcus intermedius, H2O
# [10] = Staphylococcus intermedius, water additive DMSO
# [11] = Staphylococcus intermedius, water additive EtOH
# [12] = A-196 0.01–10 μg/mL, A-219 above 0.1 μg/mL, A-213 lower concentrations
# [13] = up to 150 μg/mL, A-193 and A-179 after 48 h
compound,measurement,setting,value
CC(C)C[C@H](NC(=O)[C@H](CCCNC(=N)N)NC(=O)OCc1ccccc1)C(=O)N[C@H](CNC(=O)/C=C/c1ccccc1)C(C)C [Compound A-20],MIC,"S. pyogenes ATCC 19615; S. pyogenes, H2O",8 µg/mL
same,MIC,S. pyogenes ATCC 19615; [8],8 µg/mL
same,MBC,"S. pyogenes ATCC 19615; Streptococcus pyogenes, ATCC19615, S. pyogenes, H2O, read-out: MBC",16 µg/mL
same,MBC,"S. pyogenes ATCC 19615; Streptococcus pyogenes, ATCC19615, S. pyogenes, water additive EtOH, read-out: MBC",16 µg/mL
same,MBC,"S. pyogenes ATCC 19615; Streptococcus pyogenes, ATCC19615, S. pyogenes, water additive DMSO, read-out: MBC",8 µg/mL
same,MIC,"S. pyogenes ATCC 19615; Streptococcus pyogenes, ATCC19615, S. pyogenes, water additive DMSO, read-out: MIC",8 µg/mL
same,MBC,S. agalactiae ATCC 27956; H2O,256 µg/mL
same,MIC,S. agalactiae ATCC 27956; H2O,128 µg/mL
same,MBC,S. agalactiae ATCC 27956; water additive DMSO,64 µg/mL
same,MIC,S. agalactiae ATCC 27956; water additive DMSO,32 µg/mL
same,MBC,S. agalactiae ATCC 27956; water additive EtOH,128 µg/mL
same,MIC,S. agalactiae ATCC 27956; water additive EtOH,64 µg/mL
same,MBC,"E. faecalis c.i.; Enterococcus faecalis, H2O, read-out: MBC",256 µg/mL
same,MIC,"E. faecalis c.i.; Enterococcus faecalis, H2O, read-out: MIC",128 µg/mL
same,MBC,E. faecalis c.i.; water additive DMSO,256 µg/mL
same,MBC,E. faecalis c.i.; water additive EtOH,256 µg/mL
same,MBC,"S. cohnii c.i.; Staphylococcus cohnii, H2O, read-out: MBC",64 µg/mL
same,MIC,"S. cohnii c.i.; Staphylococcus cohnii, H2O",128 µg/mL
same,MIC,"S. cohnii c.i.; Staphylococcus cohnii, water additive DMSO",64 µg/mL
same,MIC,"S. cohnii c.i.; Staphylococcus cohnii, water additive EtOH",64 µg/mL
same,MBC,"E. coli ATCC 25922; Escherichia coli, ATCC25922, H2O, read-out: MBC",512 µg/mL
same,MIC,"E. coli ATCC 25922; Escherichia coli, ATCC25922, H2O, read-out: MIC",256 µg/mL
same,MBC,E. coli ATCC 25922; water additive DMSO,512 µg/mL
same,MIC,E. coli ATCC 25922; water additive DMSO,256 µg/mL
same,MBC,E. coli ATCC 25922; water additive EtOH,512 µg/mL
same,MIC,E. coli ATCC 25922; water additive EtOH,256 µg/mL
same,MIC,"S. mutans c.i.; Streptococcus mutans, H2O, read-out: MIC",16 µg/mL
same,MIC,S. mutans c.i.; water additive DMSO,16 µg/mL
same,MIC,S. mutans c.i.; water additive EtOH,16 µg/mL
same,MIC,"P. aeruginosa ATCC 10145; Pseudomonas aeruginosa, ATCC10145, H2O, read-out: MIC",> 512 µg/mL
same,MIC,P. aeruginosa ATCC 10145; water additive DMSO,> 512 µg/mL
same,MIC,P. aeruginosa ATCC 10145; water additive EtOH,> 512 µg/mL
same,MIC,"[1]; Klebsiella pneumoniae, ATCC700603, H2O, read-out: MIC",> 512 µg/mL
same,MIC,[1]; water additive DMSO,> 512 µg/mL
same,MIC,[1]; water additive EtOH,> 512 µg/mL
same,MIC,"P. vulgaris ATCC 6896; Proteus vulgaris, ATCC6896, H2O, read-out: MIC",> 512 µg/mL
same,MIC,P. vulgaris ATCC 6896; water additive DMSO,> 512 µg/mL
same,MIC,P. vulgaris ATCC 6896; water additive EtOH,> 512 µg/mL
same,MBC,"S. schleiferi c.i.; Staphylococcus schleiferi, H2O, read-out: MBC",16 µg/mL
same,MIC,"S. schleiferi c.i.; Staphylococcus schleiferi, H2O, read-out: MIC",16 µg/mL
same,MBC,"S. schleiferi c.i.; Staphylococcus schleiferi, water additive DMSO, read-out: MBC",8 µg/mL
same,MIC,"S. schleiferi c.i.; Staphylococcus schleiferi, water additive DMSO, read-out: MIC",8 µg/mL
same,MBC,"S. schleiferi c.i.; Staphylococcus schleiferi, water additive EtOH, read-out: MBC",16 µg/mL
same,MIC,"S. schleiferi c.i.; Staphylococcus schleiferi, water additive EtOH, read-out: MIC",16 µg/mL
same,MBC,S. aureus ATCC 43300; water additive DMSO,32 µg/mL
same,MIC,S. aureus ATCC 43300; water additive DMSO,16 µg/mL
same,MBC,S. aureus ATCC 43300; water additive EtOH,32 µg/mL
same,MIC,S. aureus ATCC 43300; water additive EtOH,16 µg/mL
same,MBC,"S. aureus ATCC 43300; Staphylococcus aureus, ATCC43300, H2O, read-out: MBC",32 µg/mL
same,MIC,"S. aureus ATCC 43300; Staphylococcus aureus, ATCC43300, H2O, read-out: MIC",16 µg/mL
same,MBC,S. intemrdius c.i.; [9],64 µg/mL
same,MIC,S. intemrdius c.i.; [9],32 µg/mL
same,MBC,S. intemrdius c.i.; [10],32 µg/mL
same,MIC,S. intemrdius c.i.; [10],16 µg/mL
same,MBC,S. intemrdius c.i.; [11],64 µg/mL
same,MIC,S. intemrdius c.i.; [11],32 µg/mL
same,impact on proliferation,[2],no impact on the proliferation
CC(C)C[C@H](NC(=O)[C@H](CCCNC(=N)N)NC(=O)OCc1ccccc1)C(=O)N[C@H](C(=O)NCCc1ccccc1)C(C)C [Compound A-196] (HELM PEPTIDE1{[O=C(OCc1ccccc1)[*:2]].R.L.V.[c1ccc(CCN[*:1])cc1]}$$$$V2.0),MBC,"S. pyogenes ATCC 19615; S. pyogenes, water additive DMSO",256 µg/mL
same,MBC,S. pyogenes ATCC 19615; [8],256 µg/mL
same,MIC,E. faecalis c.i.; H2O,> 512 µg/mL
same,MIC,E. faecalis c.i.; water additive DMSO,> 512 µg/mL
same,MBC,E. faecalis c.i.; water additive EtOH,> 512 µg/mL
same,MIC,E. faecalis c.i.; water additive EtOH,512 µg/mL
same,MBC,S. cohnii c.i.; water additive DMSO,256 µg/mL
same,MBC,S. cohnii c.i.; water additive EtOH,256 µg/mL
same,MIC,E. coli ATCC 25922; H2O,> 512 µg/mL
same,MIC,E. coli ATCC 25922; water additive DMSO,> 512 µg/mL
same,MIC,E. coli ATCC 25922; water additive EtOH,> 512 µg/mL
same,present in human plasma,[3],85–90%
same,MBC,S. mutans c.i.; H2O,256 µg/mL
same,MIC,S. mutans c.i.; water additive DMSO,32 µg/mL
same,MIC,P. aeruginosa ATCC 10145; H2O,> 512 µg/mL
same,MIC,P. aeruginosa ATCC 10145; water additive DMSO,> 512 µg/mL
same,MIC,P. aeruginosa ATCC 10145; water additive EtOH,> 512 µg/mL
same,MIC,[1]; H2O,> 512 µg/mL
same,MIC,[1]; water additive DMSO,> 512 µg/mL
same,MIC,[1]; water additive EtOH,> 512 µg/mL
same,MIC,P. vulgaris ATCC 6896; H2O,> 512 µg/mL
same,MIC,P. vulgaris ATCC 6896; water additive DMSO,> 512 µg/mL
same,MIC,P. vulgaris ATCC 6896; water additive EtOH,> 512 µg/mL
same,pro-proliferative effect above control,[4]; [12],5–20%
same,antiproliferative effect (decrease vs control),[4]; [13],up to 50%
same,MBC,S. schleiferi c.i.; H2O,16 µg/mL
same,MIC,S. schleiferi c.i.; H2O,16 µg/mL
same,MBC,S. schleiferi c.i.; water additive DMSO,16 µg/mL
same,MIC,S. schleiferi c.i.; water additive DMSO,16 µg/mL
same,MBC,S. schleiferi c.i.; water additive EtOH,32 µg/mL
same,MIC,S. schleiferi c.i.; water additive EtOH,16 µg/mL
same,concentration at which cytotoxic effect starts,[5],150 µg/mL
same,MBC,S. aureus ATCC 43300; H2O,256 µg/mL
same,MBC,S. aureus ATCC 43300; water additive DMSO,256 µg/mL
same,pro-proliferative effect above control,[6]; [12],5–20%
same,antiproliferative effect (decrease vs control),[6]; [13],up to 50%
same,MIC,S. intemrdius c.i.; H2O,32 µg/mL
same,concentration at which cytotoxic effect starts,fibroblasts (46BR.1N),150 µg/mL
CNC(C)C1CCC(N)C(OC2C(N)CC(N)C(OC3OCC(C)(O)C(NC)C3O)C2O)O1 (stereo not shown) [gentamicin],VD values,[7]; in vivo,−0.699 to −0.432 log L/kg
CN[C@H](CC(C)C)C(=O)N[C@H]1C(=O)N[C@@H](CC(N)=O)C(=O)N[C@H]2C(=O)N[C@H]3C(=O)N[C@H](C(=O)N[C@H](C(=O)O)c4cc(O)cc(O)c4-c4cc3ccc4O)[C@H](O)c3ccc(c(Cl)c3)Oc3cc2cc(c3O[C@@H]2O[C@H](CO)[C@@H](O)[C@H](O)[C@H]2O[C@H]2C[C@](C)(N)[C@H](O)[C@H](C)O2)Oc2ccc(cc2Cl)[C@H]1O [vancomycin],VD values,"[7]; reference number not given, probably ref 84, 85",−0.398 to 0 log L/kg
